Results taken from PubChem BioAssay AID2060616 (Molecular Pharmacology Branch, DTP, NCI, 2025).

Tested on: 377384-186-R-J1-PDC complex spheroid viability
Experiment: Anticancer human tumor 377384-186-R-J1-PDC patient-derived pancreatic carcinoma cell line growth inhibition [CLK]
Settings: for IC50: curve of first compound; for viability, T/C: stronger effect = lower value
Description: A high-throughput screen of multi-cell type tumor spheroids was designed to identify active combinations of […] and targeted small molecules. Complex spheroids include a stromal component modeled by human endothelial cells (HUVEC) and fibroblasts modeled by human mesenchymal stem cells (MSCs). The concentration ranges selected for each drug and investigational agent were based upon clinically achievable concentrations if the clinical Cmax of the agent was known.
Compounds. The drugs and investigational agents: cirtuvivint (SM08502; NSC835563), CC-671 (NSC850746), vemurafenib (NSC761431), tapotoclax (NSC804041), sotorasib (NSC818433), adagrasib (NSC831453), MRTX-1133 (NSC836407), BAY2416964 (NSC825713), copanlisib (NSC816437), inavolisib (NSC800729), abemaciclib (NSC768073), osimertinib (NSC779217), entinostat (NSC756642), eltanexor (KPT-8602, NSC794443), venetoclax (NSC766270), ceralasertib (NSC777638), bortezomib (NSC756655), olaparib (NSC753686), talazoparib (NSC767125), alisertib (NSC759677), peposertib (NSC802822), gemcitabine (NSC613327), 5-fluorouracil (NSC19893), SN-38 (NSC673596), oxaliplatin (NSC266046), paclitaxel (NSC125973), and doxorubicin (NSC123127), were obtained from the National Cancer Institute (NCI) Developmental Therapeutics Program Chemical Repository. The FDA-approved anticancer drug set is available from the Developmental Therapeutics Program at https://dtp.cancer.gov/organization/dscb/obtaining/available plates.htm. […] The stock solutions were prepared in dimethyl sulfoxide (DMSO, Sigma-Aldrich, St. Louis, MO, cat. D2650), except for the platinum complexes which were prepared in saline (Quality Biological, Gaithersburg, MD, cat. 114-055-101), at 800-fold the tested concentration and stored at -70 degrees C prior to their use. All drugs and investigational agents were tested over a range starting from a high concentration at or near the clinical Cmax and decreasing in half-log increments. If the clinical Cmax for an agent had not been determined, the highest concentration tested was 10 microM.
Cell Culture. All cells were maintained in an incubator at 37 degrees C and 5% CO2 with 95% humidity. The PDC lines were cultured according to standard operating procedures established by the NCI PDMR. Briefly, all PDCs were thawed and cultured in Matrigel-coated flasks prepared with a working solution of 1X Ham's F-12 nutrient mix, without supplementation (Invitrogen, Waltham, MA, cat. 11765054), 100 U/mL penicillin-streptomycin (Invitrogen, cat. 15140122), and 2.5% Matrigel (Corning Inc., Corning, NY, cat. 354248) for the first three passages. The 947758-054-R-J2-PDC line was cultured in 6B/Colon 1A media, which includes advanced DMEM/F-12 (Thermo Fisher Scientific, cat. 12634028), 10 mM HEPES (Thermo Fisher Scientific, cat. 15630080), 1X GlutaMAX supplement (Thermo Fisher Scientific, cat. 35050061), 0.1 mg/mL primocin (InvivoGen, cat. ant-pm-2), 10% defined fetal bovine serum, heat inactivated (HyClone Laboratories Inc., cat. SH30070.03HI), 1.25 mM N-Acetyl-L-cysteine (Sigma-Aldrich, cat. A9165), 10 mM nicotinamide (Sigma-Aldrich, cat. N0636), 1X B-27 supplement (Thermo Fisher Scientific, cat. 17504044), 1X N-2 supplement (Thermo Fisher Scientific, cat. 17502048), and 10 microM Y-27632 dihydrochloride (Tocris Bioscience, cat. 1254). The 876862-298-R-J1-PDC was cultured in 6E media, which includes all 6B/Colon 1A media components plus 50% L-WRN conditioned media (ATCC, cat. CRL-3276), 50 ng/mL recombinant human EGF recombinant protein (hEGF; Thermo Fisher Scientific, cat. PHG0311), 10 ng/mL recombinant human fibroblast growth factor 10 (hGFG-10; PeproTech, cat. 100-26), 1 ng/mL recombinant human fibroblast growth factor 2 (hFGF-2; PeproTech, cat. 100-18B), and 1 µM prostaglandin E2 (PGE2; Tocris, cat. 2296). The 227483-062-R1-J1-PDC line was cultured in Panc media, containing all 6E components except hFGF-2, with the addition of 500 nM SB-431542 (Selleckchem, cat. S1067) and 10 nM gastrin (Tocris, cat. 3006). […]
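Further: spheroids exposed to agents for 7 days before reading.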
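Wherever viability, T/C is given: luminescence signal used as a stand-in for viable cells.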

SMILES: Cn1ncnc1[C@H]1c2n[nH]c(=O)c3cc(F)cc(c23)N[C@@H]1c1ccc(F)cc1 + CNC(=O)c1ccc(Nc2nc(OC3CCCC3)c3c(-c4ccc5nc(C)oc5c4)c[nH]c3n2)c(OC)c1
- IC50 (second compound 0.0316 µM): > 100 nM
- IC50 (second compound 0.1 µM): < 0.316 nM
- IC50 (second compound 0.316 µM): < 0.316 nM
- IC50 (second compound 1 µM): < 0.316 nM
- IC50 (second compound 3.16 µM): < 0.316 nM
- IC50 (second compound 10 µM): < 0.316 nM
- viability, T/C (second compound 0.0316 µM, first compound 0.000316 µM): 91.7%
- viability, T/C (second compound 0.0316 µM, first compound 0.001 µM): 87.6%
- viability, T/C (second compound 0.0316 µM, first compound 0.00316 µM): 61.8%
- viability, T/C (second compound 0.0316 µM, first compound 0.01 µM): 56.3%
- viability, T/C (second compound 0.0316 µM, first compound 0.0316 µM): 53.6%
- viability, T/C (second compound 0.0316 µM, first compound 0.1 µM): 48.8%
- viability, T/C (second compound 0.1 µM, first compound 0.000316 µM): 48.7%
- viability, T/C (second compound 0.1 µM, first compound 0.001 µM): 42.7%
- viability, T/C (second compound 0.1 µM, first compound 0.00316 µM): 36.5%
- viability, T/C (second compound 0.1 µM, first compound 0.01 µM): 39%
- viability, T/C (second compound 0.1 µM, first compound 0.0316 µM): 34.3%
- viability, T/C (second compound 0.1 µM, first compound 0.1 µM): 28.7%
- viability, T/C (second compound 0.316 µM, first compound 0.000316 µM): 16.8%
- viability, T/C (second compound 0.316 µM, first compound 0.001 µM): 18.2%
- viability, T/C (second compound 0.316 µM, first compound 0.00316 µM): 19.2%
- viability, T/C (second compound 0.316 µM, first compound 0.01 µM): 17.4%
- viability, T/C (second compound 0.316 µM, first compound 0.0316 µM): 16%
- viability, T/C (second compound 0.316 µM, first compound 0.1 µM): 14.9%
- viability, T/C (second compound 1 µM, first compound 0.000316 µM): 21.5%
- viability, T/C (second compound 1 µM, first compound 0.001 µM): 18.2%
- viability, T/C (second compound 1 µM, first compound 0.00316 µM): 17.6%
- viability, T/C (second compound 1 µM, first compound 0.01 µM): 15.9%
- viability, T/C (second compound 1 µM, first compound 0.0316 µM): 15.6%
- viability, T/C (second compound 1 µM, first compound 0.1 µM): 15.6%
- viability, T/C (second compound 3.16 µM, first compound 0.000316 µM): 16.9%
- viability, T/C (second compound 3.16 µM, first compound 0.001 µM): 18.6%
- viability, T/C (second compound 3.16 µM, first compound 0.00316 µM): 17.3%
- viability, T/C (second compound 3.16 µM, first compound 0.01 µM): 20%
- viability, T/C (second compound 3.16 µM, first compound 0.0316 µM): 15.6%
- viability, T/C (second compound 3.16 µM, first compound 0.1 µM): 15.3%
- viability, T/C (second compound 10 µM, first compound 0.000316 µM): 18.7%
- viability, T/C (second compound 10 µM, first compound 0.001 µM): 17.5%
- viability, T/C (second compound 10 µM, first compound 0.00316 µM): 20.7%
- viability, T/C (second compound 10 µM, first compound 0.01 µM): 16.4%
- viability, T/C (second compound 10 µM, first compound 0.0316 µM): 18.5%
- viability, T/C (second compound 10 µM, first compound 0.1 µM): 14.8%
